Measured values taken from article PMC6155776, “Synthesis of Novel Pyrazinamide Derivatives Based on 3-Chloropyrazine-2-carboxamide and Their Antimicrobial Evaluation” (Molecules : A Journal of Synthetic Chemistry and Natural …, 2017).
Converted amounts (≈) assume the structure as drawn. “And” between values parts separate entries of the source, which are not always exact repeats. Equal entries are not always repeated. Where two headings read alike, the source gives them in different places.

What was measured:
[1] = system: Mycobacterium smegmatis CCM 4622 (ATCC 607); assay: Mycobacterium smegmatis screening, microdilution broth panel method with resazurin; assay type: cell-based; settings: Middlebrook 7H9 broth, 48 h incubation; for MIC: Mycolicibacterium smegmatis, 48 h, read-out: Minimum Inhibitory Concentrations M. smegmatis
[2] = system: Mycobacterium tuberculosis H37Rv; assay: Antimycobacterial screening, microdilution broth panel method with resazurin (Alamar blue); assay type: cell-based; settings: for MIC: read-out: Minimum Inhibitory Concentrations M. tbc H37Rv
[3] = system: eight common bacterial strains; assay: Antibacterial screening, microdilution broth panel method; assay type: cell-based; settings: all tested bacterial strains, pH 7.0; read-out: Minimum Inhibitory Concentrations Bacteria
[4] = Experimental lipophilicity logk by RP-HPLC; settings: methanol 70% / water 30%, C18
Method: These values were compared with logk, an experimentally measured lipophilicity parameter derived from retention times acquired by RP-HPLC.
Experimental lipophilicity parameter logk values were determined using HPLC method. […] The separation process was handled by Agilent ChemStation, version B.04.02 extended with spectral module (Agilent Technologies Inc.). A mixture of methanol (HPLC grade, 70%) and water (HPLC-Milli-Q Grade, 30%) was used as mobile phase. The total flow rate of the column was set to 1.0 mL/min, injection 20 μL, column temperature 30 °C. 210 nm as detection wavelength and 270 nm as monitor wavelength were chosen. A methanolic solution of KI was used for the determination of dead time (TD). Retention times (TR) of synthesized compounds were measured in minutes. Capacity factors k were calculated according to formula k = (TR − TD)/TD, where TR is the retention time of the solute and TD denotes the dead time obtained via an unretained analyte (KI). Logk, which was calculated from the capacity factor k, is used as the lipophilicity index.

M. tbc H37Rv = settings: cited from earlier work
M. kansasii My 235/80 = assay: Antimycobacterial screening, microdilution broth panel method with resazurin (Alamar blue); assay type: cell-based; settings: Mycobacterium kansasii, MY235/80; pH 5.6, 5–7 days incubation
[5] = system: Staphylococcus aureus CCM 4516/08; assay: Antibacterial screening, microdilution broth panel method; assay type: cell-based
in vitro = settings: human, IC50 (cytotoxicity), HepG2, 24 h incubation
HepG2 cell line = settings: read-out: IC50 (cytotoxicity); HepG2, 24 h incubation
[6] = system: Enterococcus faecalis J 14365/08; assay: Antibacterial screening, microdilution broth panel method; assay type: cell-based; settings: J14365/08; Enterococcus faecalis J 14365/08, pH 7.0; read-out: Minimum Inhibitory Concentrations Bacteria, EF
[7] = Mycobacterium tuberculosis, H37RV, 336 h, pH 5.6, Sula's broth pH 5.6, 14 days incubation
[8] = Mycobacterium tuberculosis, H37RV, 336 h, pH 5.6, Sula's broth pH 5.6, 14 days incubation, n.a. = not active

Compound	MIC [1] [µg/mL]	MIC [2, 7] [µg/mL]	MIC [3] [µM]	Logk [4]	further results
O=C(O)c1cn(C2CC2)c2cc(N3CCNCC3)c(F)cc2c1=O [CPX, ciprofloxacin, reference compound]	0.1 (≈ 0.302 µM)	–	–	–	Minimum Inhibitory Concentrations M. smegmatis [1]: 0.10 to 0.20 µg/mL
NC(=O)c1nccnc1NCc1ccccc1 [Compound 1, 3-(Benzylamino)pyrazine-2-carboxamide]	≥ 500	≥ 100	> 500	0.215	–
N#Cc1cnc(C#N)c(NCc2ccccc2)n1 [Compound 1-B]	–	–	–	–	MIC against M. tbc H37Rv (M. tbc H37Rv; series A and B): 12.5 µg/mL (≈ 53.1 µM)
Cc1nc(C#N)c(C#N)nc1NCc1ccccc1 [Compound 1-C]	–	–	–	–	MIC against M. tbc H37Rv (M. tbc H37Rv; series C): 25 µg/mL and 100 µM
NC(=O)c1nccnc1NCc1cccc(Cl)c1 [Compound 2, 3-[(3-Chlorobenzyl)amino]pyrazine-2-carboxamide]	≥ 500	> 100	> 500	0.373	–
NC(=O)c1nccnc1NCc1ccc(Cl)c(Cl)c1 [Compound 3, 3-[(3,4-Dichlorobenzyl)amino]pyrazine-2-carboxamide]	≥ 500	> 100	> 500	0.470	–
NC(=O)c1nccnc1NCc1cccc(C(F)(F)F)c1 [Compound 4, 3-[(3-Trifluoromethylbenzyl)amino]pyrazine-2-carboxamide]	250 (≈ 844 µM)	–	–	0.403	MIC (M. kansasii My 235/80): 25 µg/mL and 84 µM; Minimum Inhibitory Concentrations Bacteria, SA ([5]; Staphylococcus aureus CCM 4516/08, pH 7.0): 31.25 SA ^a µM; MIC ([5]; Staphylococcus aureus, CCM4516, pH 7, Staphylococcus aureus CCM 4516/08, pH 7.0, read-out: Minimum Inhibitory Concentrations Bacteria, SA): 31.2 µM (≈ 9.26 µg/mL); IC50 (in vitro): 76.5 µM
N#Cc1cnc(C(N)=O)c(NCc2cccc(C(F)(F)F)c2)n1 [Compound 4-A]	–	–	–	–	MIC against M. tbc H37Rv (M. tbc H37Rv; series A and B): 25 µg/mL and 78 µM
Cc1nc(C#N)c(C#N)nc1NCc1cccc(C(F)(F)F)c1 [Compound 4-C]	–	–	–	–	MIC against M. tbc H37Rv (M. tbc H37Rv; series C): 12.5 µg/mL and 39 µM
NC(=O)c1nccnc1NCc1ccc(Cl)cc1 [Compound 5, 3-[(4-Chlorobenzyl)amino]pyrazine-2-carboxamide]	250 (≈ 952 µM)	> 100	–	0.373	–
Cc1ccccc1CNc1nccnc1C(N)=O [Compound 6, 3-[(2-Methylbenzyl)amino]pyrazine-2-carboxamide]	≥ 500	> 100	> 500	0.320	–
COc1ccc(CNc2nccnc2C(N)=O)cc1 [Compound 7, 3-[(4-Methoxybenzyl)amino]pyrazine-2-carboxamide]	≥ 500	> 100	> 500	0.194	–
Cc1ccc(CNc2nccnc2C(N)=O)cc1 [Compound 8, 3-[(4-Methylbenzyl)amino]pyrazine-2-carboxamide]	≥ 500	1.56 to 12.5	> 500	0.441	MIC [2, 8]: 6 to 42 µM; Minimum Inhibitory Concentrations M. tbc H37Rv ([2]; Sula's broth pH 5.6, 14 days incubation): 1.56 µg/mL; MIC ([2]; Sula's broth pH 5.6, 14 days incubation, n.a. = not active): 6 µM; IC50 (HepG2 cell line): > 250 µM; IC50 (in vitro): ≥ 250 µM
Cc1ccc(CNc2nc(C#N)cnc2C(N)=O)cc1 [Compound 8-A]	–	–	–	–	MIC against M. tbc H37Rv (M. tbc H37Rv; series A and B): 12.5 µg/mL and 47 µM
Cc1ccc(CNc2nc(C#N)cnc2C#N)cc1 [Compound 8-B]	–	–	–	–	MIC against M. tbc H37Rv (M. tbc H37Rv; series A and B): 6.25 µg/mL and 25 µM
Cc1ccc(CNc2nc(C#N)c(C#N)nc2C)cc1 [Compound 8-C]	–	–	–	–	MIC against M. tbc H37Rv (M. tbc H37Rv; series C): 25 µg/mL and 95 µM
NC(=O)c1nccnc1NCc1ccc(N)cc1 [Compound 9, 3-[(4-Aminobenzyl)amino]pyrazine-2-carboxamide]	250 (≈ 1030 µM)	–	> 500	−0.313	IC50 (in vitro): > 750 µM
N#Cc1cnc(C(N)=O)c(NCc2ccc(N)cc2)n1 [Compound 9-A]	–	–	–	–	MIC against M. tbc H37Rv (M. tbc H37Rv; series A and B): 12.5 µg/mL and 47 µM
N#Cc1cnc(C#N)c(NCc2ccc(N)cc2)n1 [Compound 9-B]	–	–	–	–	MIC against M. tbc H37Rv (M. tbc H37Rv; series A and B): 25 µg/mL and 100 µM
Cc1nc(C#N)c(C#N)nc1NCc1ccc(N)cc1 [Compound 9-C]	–	–	–	–	MIC against M. tbc H37Rv (M. tbc H37Rv; series C): 25 µg/mL and 95 µM
NC(=O)c1nccnc1NCc1ccccc1Cl [Compound 10, 3-[(2-Chlorobenzyl)amino]pyrazine-2-carboxamide]	≥ 500	> 100	> 500	0.441	–
NC(=O)c1nccnc1NCc1ccccc1F [Compound 11, 3-[(2-Fluorobenzyl)amino]pyrazine-2-carboxamide]	≥ 500	> 100	–	0.248	MIC [6]: 125 µM (≈ 30.8 µg/mL)
NC(=O)c1nccnc1NCc1ccc(C(F)(F)F)cc1 [Compound 12, 3-[(4-Trifluoromethylbenzyl)amino]pyrazine-2-carboxamide]	≥ 500	–	–	0.502	MIC [6]: 125 µM (≈ 37 µg/mL); IC50 (in vitro): 57.3 µM
NC(=O)c1nccnc1NCc1ccccc1C(F)(F)F [Compound 13, 3-[(2-Trifluoromethylbenzyl)amino]pyrazine-2-carboxamide]	≥ 500	> 100	–	0.495	MIC [6]: 125 µM (≈ 37 µg/mL)
COc1ccc(CNc2nccnc2C(N)=O)c(OC)c1 [Compound 14, 3-[(2,4-Dimethoxybenzyl)amino]pyrazine-2-carboxamide]	≥ 500	> 100	–	0.274	MIC [6]: 62.5 µM (≈ 18 µg/mL)
NC(=O)c1nccnc1NCc1cccc([N+](=O)[O-])c1 [Compound 15, 3-[(3-Nitrobenzyl)amino]pyrazine-2-carboxamide]	≥ 500	> 100	> 500	0.101	–
NNC(=O)c1ccncc1 [INH, isoniazid, reference compound]	–	0.39	–	–	MIC [2, 8]: 3 µM; MIC (M. kansasii My 235/80): 1.56 µg/mL to 12.5 µg/mL and 11 µM to 91 µM; Minimum Inhibitory Concentrations M. smegmatis [1]: 7.81 to 15.63 µg/mL; Minimum Inhibitory Concentrations M. smegmatis ([1]; listed as isoniazid): 15.63 µg/mL
NC(=O)c1cnccn1 [PZA, pyrazinamide]	≥ 500	12.5	–	–	MIC [2, 8]: 102 µM
CO[C@H]1/C=C/O[C@@]2(C)Oc3c(C)c(O)c4c(O)c(c(/C=N/N5CCN(C)CC5)c(O)c4c3C2=O)NC(=O)/C(C)=C\C=C\[C@H](C)[C@H](O)[C@@H](C)[C@@H](O)[C@@H](C)[C@H](OC(C)=O)[C@@H]1C [RFM, rifampicin, reference compound]	0.39 (≈ 0.474 µM)	–	–	–	Minimum Inhibitory Concentrations M. smegmatis [1]: 0.78 to 1.56 µg/mL
